Measured values: EPA's ToxValDB 9.5 (doi:10.2903/j.efsa.2005.46r)
≈ marks a conversion by molar mass, not a printed value.

Legend:
[1] = test system: Anas platyrhynchos
[2] = test system: Apis mellifera; conditions: acute, mortality
[3] = test system: Bibionidae; conditions: chronic/long-term; duration: 28 days; development
[4] = test system: Chrysoperla externa; conditions: not reported; mortality
[5] = test system: Colinus virginianus; conditions: acute; oral; mortality
[6] = test system: Daphnia magna; conditions: chronic/long-term; duration: 21 days; reproduction
[7] = test system: Mus musculus; conditions: chronic; duration: 18 months; M; body weight
[8] = test system: Oncorhynchus mykiss; conditions: for NOEC: chronic/long-term
[9] = test system: Pimephales promelas; conditions: chronic/long-term; duration: 36 days; time to hatch
[10] = test system: Rattus norvegicus
[11] = test system: Tagia sp.; conditions: acute; duration: 14 days; mortality
[12] = test system: Typhlodromus pyri; conditions: not reported; mortality

## CNC(=O)/C(=N/OC)c1ccccc1COc1cc(C)ccc1C [Dimoxystrobin]
[1]; reproductive
  NOEC: 36 mg/kg-day
[1]; short-term, oral, feed, mortality
  LC50: > 232 mg/kg-day
[2]; dermal
  LD50: > 100 µg/piece
[2]; duration: 48 hours, oral, unspecified
  LD50: > 79.4 µg/piece
[3]
  NOEC: 0.01 mg/L
[4]
  LEL: 200 g/ha
[5]
  LD50: > 2000 mg/kg
[6]
  NOEC: 0.0125 mg/L
[7]
  NOAEL: 4 mg/kg-day
[8]; acute, duration: 96 hours, mortality
  LC50: 0.0434 µg/mL (≈ 0.133 µM)
[8]; duration: 28 days, mortality
  NOEC: 0.01 mg/L
[8]; duration: 97 days, behavior
  NOEC: 0.000316 mg/L
[9]
  NOEC: 0.016 mg/L
[10]; acute, oral, diet, mortality
  LC50: 5 mg/kg-day
[10]; short-term, duration: 7 days, clinical chemistry
  NOAEL: 4 mg/kg-day
[11]
  LC50: 47.3 mg/kg
[12]
  LEL: 200 g/ha
